# Target: T1, Kv7.2/7.3 (Homo sapiens, UniProt O43525+O43526)
# T1 construct: Kv7.2 tetracycline-induced, Kv7.3 constitutive
# Test: Kv7.2/7.3 Activation Assay (Thallium Flux Assay)
# Assay type: cell-based
# Settings: hKV7.2/7.3 cell line; test compound at single concentration of 10 μM; fluorescence at 90 sec normalized to positive control (retigabine, 30 μM)
# From the text: The Thallium Flux Assay is used as a surrogate indicator of potassium channel activity.
# The experimental protocol was adapted from the FluxOR™ II Green Potassium Ion Channel Assay User Guide (Pub. No. MAN0016084, Invitrogen). Conditions were optimized for the Kv7.2/7.3 cell line.
# Cell Line: The hKV7.2/7.3 cell line was obtained from Chantest (cat. #CT6147).
# Cell Culture: Kv7.2/7.3 cells were maintained in a media containing DMEM/F12; 50/50 (Fisher 11-330), 10% Fetal Bovine Serum (FBS) (Fisher 26-140), 100 units/mL Penicillin-Streptomycin (Fisher 15-140), 0.005 mg/ml Blasticidin (InvivoGen ant-bl-1), 0.5 mg/mL Geneticin (InvivoGen ant-gn-5), and 0.1 mg/mL Zeocin (Fisher R25001). One day prior to experimentation, cells were plated in 96 well clear bottom plates (Corning cat. #353219) in a media without Blasticidin, Geneticin, or Zeocin. In this cell line Kv7.3 channel expression is controlled by a constitutive promoter. Kv7.2 channel expression was induced by adding tetracycline (Sigma T7660) at a final concentration of 10 ng/mL overnight in a cell culture incubator at 37° C. and 5% CO2. On the day of assay, the cell culture medium in the 96-well plates was replaced by assay buffer containing the thallium-sensitive fluorescent sensor, FluxOR II Green prepared according to manufacturer's instructions. The 96-well plates were then incubated for 1 h at 37° C. Following the incubation, the FluxOR II Green-containing solution was replaced with extracellular solution.
# Test Compound Plates: The test compound is diluted in a mixture of 0.1% DMSO/extracellular solution at a single concentration of 10 μM. Dilutions were made on a Biomek NXP (BECKMAN COULTER). Extracellular solution contained (in mM: 145 NaCl, 4 KCl, 2 CaCl2), 1 MgCl2, 10 HEPES, and 10 Glucose, pH 7.4).
# Measurement and data analysis: Thallium-flux-mediated changes in intracellular fluorescence were made using a plate reader (Enspire, Perkin Elmer) set with an excitation wavelength of 475 nm and an emission wavelength of 530 nm. After a 15 sec baseline measurement, the stimulus buffer containing thallium and potassium was added to the 96-well plate containing FluxOR II Green-loaded cells and test compounds. Fluorescence values at 90 sec were normalized to the positive control (retigabine, 30 μM) and test compound activities were assigned categories according to the formula: “No Activity <0.15, “+” Moderate Activity 0.15-0.7, and “++” High Activity >0.7.
row,SMILES,Kv7.2/7.3 Activity
1,"Cn1nc(NC(=O)C[C@H]2CC(F)(F)C2(F)F)c(C2CCC2)c1-c1ccc(S(C)(=O)=O)cc1 [Compound 54, (S)-N-(4-cyclobutyl-1-methyl-5-(4-(methylsulfonyl)phenyl)-1H-pyrazol-3-yl)-2-(2,2,3,3-tetrafluorocyclobutyl)acetamide]",− (“−” No Activity < 0.15)
2,"Cn1nc(NC(=O)CC(C)(C)O)c(C2CCC2)c1-c1ccc(OC(F)(F)F)cc1 [Compound 55, N-(4-cyclobutyl-1-methyl-5-(4-(trifluoromethoxy)phenyl)-1H-pyrazol-3-yl)-3-hydroxy-3-methylbutanamide]",+ (“+” Moderate Activity 0.15-0.7)
3,"COc1ccc(-c2c(C3CCC3)c(NC(=O)C[C@@H]3CC(F)(F)C3(F)F)nn2C)cc1 [Compound 56, (R)-N-(4-cyclobutyl-5-(4-methoxyphenyl)-1-methyl-1H-pyrazol-3-yl)-2-(2,2,3,3-tetrafluorocyclobutyl)acetamide]",++ (“++” High Activity ≥ 0.7)
4,"COc1ccc(-c2c(C3CCC3)c(NC(=O)C[C@H]3CC(F)(F)C3(F)F)nn2C)cc1 [Compound 57, (S)-N-(4-cyclobutyl-5-(4-methoxyphenyl)-1-methyl-1H-pyrazol-3-yl)-2-(2,2,3,3-tetrafluorocyclobutyl)acetamide]",++ (“++” High Activity ≥ 0.7)
5,"O=C(C[C@@H]1CC(F)(F)C1(F)F)Nc1nn(CCO)c(-c2ccc(F)cc2)c1C1CCC1 [Compound 58, (R)-N-(4-cyclobutyl-5-(4-fluorophenyl)-1-(2-hydroxyethyl)-1H-pyrazol-3-yl)-2-(2,2,3,3-tetrafluorocyclobutyl)acetamide]",++ (“++” High Activity ≥ 0.7)
6,"Cn1nc(NC(=O)C[C@@H]2CC(F)(F)C2(F)F)c(C2CCC2)c1Cc1ccc(OC(F)(F)F)cc1 [Compound 63, (R)-N-(4-cyclobutyl-1-methyl-5-(4-(trifluoromethoxy)benzyl)-1H-pyrazol-3-yl)-2-(2,2,3,3-tetrafluorocyclobutyl)acetamide]",++ (“++” High Activity ≥ 0.7)
7,"Cn1nc(NC(=O)C[C@H]2CC(F)(F)C2(F)F)c(C2CCC2)c1Cc1ccc(OC(F)(F)F)cc1 [Compound 64, (S)-N-(4-cyclobutyl-1-methyl-5-(4-(trifluoromethoxy)benzyl)-1H-pyrazol-3-yl)-2-(2,2,3,3-tetrafluorocyclobutyl)acetamide]",+ (“+” Moderate Activity 0.15-0.7)
8,"O=C(C[C@@H]1CC(F)(F)C1(F)F)Nc1nn(CCO)c(Cc2ccccc2)c1C1CCC1 [Compound 65, (R)-N-(5-benzyl-4-cyclobutyl-1-(2-hydroxyethyl)-1H-pyrazol-3-yl)-2-(2,2,3,3-tetrafluorocyclobutyl)acetamide]",++ (“++” High Activity ≥ 0.7)
9,"Cn1nc(NC(=O)C[C@@H]2CC(F)(F)C2(F)F)c(C2CCC2)c1C1CCCCC1 [Compound 66, (R)-N-(4-cyclobutyl-5-cyclohexyl-1-methyl-1H-pyrazol-3-yl)-2-(2,2,3,3-tetrafluorocyclobutyl)acetamide]",++ (“++” High Activity ≥ 0.7)
10,"Cn1nc(NC(=O)CC(C)(C)C(F)(F)F)c(C2CCC2)c1C1CCCCC1 [Compound 68, N-(4-cyclobutyl-5-cyclohexyl-1-methyl-1H-pyrazol-3-yl)-4,4,4-trifluoro-3,3-dimethylbutanamide]",++ (“++” High Activity ≥ 0.7)
11,"Cn1nc(NC(=O)CC2(C(F)(F)F)CC2)c(C2CCC2)c1C1CCCCC1 [Compound 69, N-(4-cyclobutyl-5-cyclohexyl-1-methyl-1H-pyrazol-3-yl)-2-(1-(trifluoromethyl)cyclopropyl)acetamide]",+ (“+” Moderate Activity 0.15-0.7)
12,"Cn1nc(NC(=O)CC2(O)CCCC2)c(C2CCC2)c1-c1ccc(OC(F)(F)F)cc1 [Compound 71, N-(4-cyclobutyl-1-methyl-5-(4-(trifluoromethoxy)phenyl)-1H-pyrazol-3-yl)-2-(1-hydroxycyclopentyl)acetamide]",++ (“++” High Activity ≥ 0.7)
13,"Cn1nc(NC(=O)CC2CC(F)(F)C2)c(C2CCC2)c1-c1ccc(OC(F)(F)F)cc1 [Compound 72, N-(4-cyclobutyl-1-methyl-5-(4-(trifluoromethoxy)phenyl)-1H-pyrazol-3-yl)-2-(3,3-difluorocyclobutyl)acetamide]",++ (“++” High Activity ≥ 0.7)
14,"Cn1nc(NC(=O)CC2(O)CCCC2)c(C2CCC2)c1-c1ccc(F)cc1 [Compound 73, N-(4-cyclobutyl-5-(4-fluorophenyl)-1-methyl-1H-pyrazol-3-yl)-2-(1-hydroxycyclopentyl)acetamide]",++ (“++” High Activity ≥ 0.7)
15,"Cn1nc(NC(=O)CC2CC(F)(F)C2)c(C2CCC2)c1-c1ccc(F)cc1 [Compound 74, N-(4-cyclobutyl-5-(4-fluorophenyl)-1-methyl-1H-pyrazol-3-yl)-2-(3,3-difluorocyclobutyl)acetamide]",++ (“++” High Activity ≥ 0.7)
16,"CCOC(=O)Nc1nn(C)c(-c2ccc(F)cc2)c1C1CCC1 [Compound 75, ethyl (4-cyclobutyl-5-(4-fluorophenyl)-1-methyl-1H-pyrazol-3-yl)carbamate]",+ (“+” Moderate Activity 0.15-0.7)
17,"O=C(CC1(C(F)(F)F)CC1)Nc1nn(CCO)c(Cc2ccccc2)c1C1CCC1 [Compound 76, N-(5-benzyl-4-cyclobutyl-1-(2-hydroxyethyl)-1H-pyrazol-3-yl)-2-(1-(trifluoromethyl)cyclopropyl)acetamide]",++ (“++” High Activity ≥ 0.7)

# Further lines, results first:
row,Kv7.2/7.3 Activity,SMILES
1,− (“−” No Activity < 0.15),"Cn1nc(NC(=O)C[C@@H]2CC(F)(F)C2(F)F)c(C2CCC2)c1-c1ccc(S(C)(=O)=O)cc1 [Compound 53, (R)-N-(4-cyclobutyl-1-methyl-5-(4-(methylsulfonyl)phenyl)-1H-pyrazol-3-yl)-2-(2,2,3,3-tetrafluorocyclobutyl)acetamide]"
2,+ (“+” Moderate Activity 0.15-0.7),"Cn1nc(NC(=O)C[C@@H]2CC(F)(F)C2(F)F)c(C2CCC2)c1-c1cnc(C(F)(F)F)s1 [Compound 59, (R)-N-(4-cyclobutyl-1-methyl-5-(2-(trifluoromethyl)thiazol-5-yl)-1H-pyrazol-3-yl)-2-(2,2,3,3-tetrafluorocyclobutyl)acetamide]"
3,+ (“+” Moderate Activity 0.15-0.7),"Cn1nc(NC(=O)C[C@H]2CC(F)(F)C2(F)F)c(C2CCC2)c1-c1cnc(C(F)(F)F)s1 [Compound 60, (S)-N-(4-cyclobutyl-1-methyl-5-(2-(trifluoromethyl)thiazol-5-yl)-1H-pyrazol-3-yl)-2-(2,2,3,3-tetrafluorocyclobutyl)acetamide]"
4,++ (“++” High Activity ≥ 0.7),"Cn1nc(NC(=O)C[C@@H]2CC(F)(F)C2(F)F)c(C2CCC2)c1CCc1ccccc1 [Compound 61, (R)-N-(4-cyclobutyl-1-methyl-5-phenethyl-1H-pyrazol-3-yl)-2-(2,2,3,3-tetrafluorocyclobutyl)acetamide]"
5,++ (“++” High Activity ≥ 0.7),"Cn1nc(NC(=O)C[C@H]2CC(F)(F)C2(F)F)c(C2CCC2)c1CCc1ccccc1 [Compound 62, (S)-N-(4-cyclobutyl-1-methyl-5-phenethyl-1H-pyrazol-3-yl)-2-(2,2,3,3-tetrafluorocyclobutyl)acetamide]"
6,+ (“+” Moderate Activity 0.15-0.7),"Cn1nc(NC(=O)C[C@H]2CC(F)(F)C2(F)F)c(C2CCC2)c1C1CCCCC1 [Compound 67, (S)-N-(4-cyclobutyl-5-cyclohexyl-1-methyl-1H-pyrazol-3-yl)-2-(2,2,3,3-tetrafluorocyclobutyl)acetamide]"
7,++ (“++” High Activity ≥ 0.7),"Cn1nc(NC(=O)CC2CC(F)(F)C2)c(C2CCC2)c1C1CCCCC1 [Compound 70, N-(4-cyclobutyl-5-cyclohexyl-1-methyl-1H-pyrazol-3-yl)-2-(3,3-difluorocyclobutyl)acetamide]"
8,++ (“++” High Activity ≥ 0.7),"Cn1nc(NC(=O)CC2(C(F)(F)F)CC2)c(C2CCC2)c1CC1CC1 [Compound 79, N-(4-cyclobutyl-5-(cyclopropylmethyl)-1-methyl-1H-pyrazol-3-yl)-2-(1-(trifluoromethyl)cyclopropyl)acetamide]"
9,++ (“++” High Activity ≥ 0.7),"Cn1nc(NC(=O)CC2CC(F)(F)C2)c(C2CCC2)c1CC1CC1 [Compound 80, N-(4-cyclobutyl-5-(cyclopropylmethyl)-1-methyl-1H-pyrazol-3-yl)-2-(3,3-difluorocyclobutyl)acetamide]"
